This is an account of results in patent publication US8163939B2, “Ascorbic acid derivative or salt thereof, production method thereof, and cosmetic” (Seikwa Kasei Company, Limited, priority 2007, dated 2012).

One data set deals with B16 melanoma 4A5 cell. Briefly: Whitening test: theophylline-induced melanine production in B16 melanoma 4A5 cells. It is filed as cell-based, mouse. To be noted: sample at a concentration of 100 μM or less; theophylline-induced melanine production; 3 days culture; N=4. A digest of the protocol: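 Murine B16 4A5 cells were grown 24 h, then cultured 3 days in D-MEM with 10% FBS, 0.2 mM theophylline and sample. Melanin was dissolved in 2N NaOH at 60° C for 15 min, read at 450 nm against a synthetic-melanin standard and normalised to BCA protein. Suppression % = [1−(A−B)/(C−B)]×100 versus normal and control groups, with samples at ≤100 μM, N=4.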

A short description of data set [1]: Stability Test 1: 2% aqueous solution, pH7, room temperature, 4 weeks (residual rate, odor, coloration). It is filed as physicochemical. As for the experimental part: (§1) Aqueous solutions (2%) of various test samples were adjusted to pH7 with a dilute sodium hydroxide aqueous solution, and charged into 50 mL screw tubes, and the tubes were sealed and stored at room temperature for 4 weeks. Thereafter, HPLC measurement were performed (using liquid chromatography manufactured by Tosoh Corp.) and the residual rate was obtained based on the peak area. The residual rate, odor(odor change) and degree of coloration were evaluated based on the following methods and standards, and the results are shown in Table 41.
◯: 80% or more and less than 90%
Δ: 60% or more and less than 80%
X: 20% or more and less than 60%
It was evaluated according to the following criterion by 10 panelists.
Based on the evaluation results, classification was conducted as shown below.
◯: total point of 10 panelists is 25 or more
Δ: total point of 10 panelists is 16 to 24
X: total point of 10 panelists is 15 or less
3: almost no change as compared with that immediately after preparation
2: coloration is observed as compared with that immediately after preparation
1: intense coloration is observed as compared with that immediately after preparation

Data set [2] is described as follows: Stability Test 2: 2% aqueous solution, pH7, 50° C., 4 weeks (residual rate, odor, coloration). It is filed as physicochemical. On the procedure:
as §1
The same test as in Test Example 2 was carried out excepting that the sample was stored at 50° C. for 4 weeks instead of storing at room temperature for 4 weeks.

Data set [3] in a line: Moisturizing test: moisturizing effect by water retention force. It is filed as physicochemical. To be noted: for moisturizing effect (in words): conclusion from Table 43, compared with ascorbic acid. On the procedure:
A sample shown later was dried, and the dried sample was spread in an amount of about 0.4 g (this weight is represented by W0) on the bottom of a weighing bottle (diameter: 3.6 cm, height excluding lid: 1.8 cm) so as to give uniform thickness. The sample contained in the weighing bottle was allowed to stand still in a constant humidity and constant temperature vessel (ENVIROS KCL-1000, TOKYO RIKAKIKAI CO, LTD) under environments of 25° C. and 65% RH. The weight was measured periodically, waiting until sufficient moisture absorption to attain equilibrium of weight increase (about 48 hours). Thereafter, the sample was transferred to under environments of 25° C. and 20% RH (in sealed vessel containing a saturated CH3COOK aqueous solution filled in the bottom part). From the weight after 24 hours (this weight is represented by W1), the amount of retained water per 1 g of the dried sample was calculated according to the following formula. (W1−W0)/W0
From the water amount thus calculated, the moisturizing effect was judged based on the following judging criterion, and the results are shown in Table 43.
Three compounds: 2,3-di-O-glyceryl ascorbic acid, 2,3-di-O-phenylglyceryl ascorbic acid, and glycerin, and
Six compounds: ascorbic acid, ascorbic acid glucoside, 2-O-glyceryl ascorbic acid, 3-O-glyceryl ascorbic acid, 3-O-butylglyceryl ascorbic acid and 3-O-octylglyceryl ascorbic acid, which were adjusted to pH7 with a dilute sodium hydroxide aqueous solution and concentrated.
◯: 25 mg or more and less than 40 mg
Δ: 10 mg or more and less than 25 mg

For data set [4], the system named is Normal human dermal fibroblasts. Briefly: Collagen production of human fibroblast (Sircol collagen assay, 100 μM, 48 hours). It is filed as cell-based. To be noted: cultured 48 hours; for activity at 100 µM: Homo sapiens, Fibroblast, N=4, read-out: Collagen production promoting effect (collagen production amount, % of control group). The procedure, abridged:
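Dermal fibroblasts pre-cultured 24 h, then exposed 48 h to sample at 100 μM in 5% FBS D-MEM at 37 °C, 5% CO2. Free collagen measured by Sircol assay, N=4, expressed as % of untreated control.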

The test system is the same in data set [5]. Briefly: Collagen production of human fibroblast 2 (100 μM or 500 μM; 2, 4 and 7 days). It is filed as cell-based. To be noted: for collagen production promoting effect over time (in words): 100 μM or 500 μM, culturing 2, 4 and 7 days; for Collagen production amount in comparison with the control group (% value when the control group is 100%): Table 46, 100 μM or 500 μM (not stated which), average ± standard error, N=4. On the procedure: Normal human dermal fibroblasts were regulated with a 10% (v/v) fetal bovine serum (manufactured by Roshe Diagnostics)-containing D-MEM so as to give a cell density of 2.5×10^4 cells/well, then, pre-incubation for 24 hours was performed on a 96-well plate. After the medium was removed, a sample regulated with a 5% (v/v) fetal bovine serum-containing D-MEM to a concentration of 100 μM was added to each well, then, cultured for 48 hours under 37° C. and 5% CO2. After completion of culturing, the amount of free collagen was measured using Sircol collagen assay kit (manufactured by Biocolor). The measurement was carried out at N=4.
Free collagen was measured under the same conditions as in Test Example 5 excepting that the concentration of each sample was 100 μM or 500 μM and culturing was carried out for 2 days, 4 days and 7 days. The measurement was carried out at N=4, and the average and standard error, in four test examples, of values of the collagen production amount in comparison with the control group (% value when the control group is 100%) are shown in Tables 46 and 47.

[6] abbreviates: storage period 2 weeks, 10 panelists.
Where [7] appears, read: storage period 4 weeks, 10 panelists.

In the case of `O=C1O[C@H]([C@@H](O)CO)C(O)=C1O` [ascorbic acid], the “Whitening effect (melanine production suppressing rate)” value (shortened to “Whitening effect”) in the data set with B16 melanoma 4A5 cell is listed as “± (<20%:±)”. Also, the Residual rate entry in data set [1] (storage period 0) was “⊚ (⊚: 90% or more)”; in data set [1] (storage period 2 weeks), “◯ (◯: 80% or more and less than 90%)”; in data set [1] (storage period 4 weeks), “X (X: 20% or more and less than 60%)”; in data set [2] (storage period 0), “◯ (◯: 80% or more and less than 90%)”; in data set [2] (storage period 2 weeks), “X (X: 20% or more and less than 60%)”; in data set [2] (storage period 4 weeks), “X (X: 20% or more and less than 60%)”. Further, the Coloration result in data set [1] (storage period 0, 10 panelists) was “◯ (◯: total point of 10 panelists is 25 or more)”; in data set [1] (setting [6]), “Δ (Δ: total point of 10 panelists is 16 to 24)”; in data set [1] (setting [7]), “X (X: total point of 10 panelists is 15 or less)”; in data set [2] (storage period 0, 10 panelists), “◯ (◯: total point of 10 panelists is 25 or more)”; in data set [2] (setting [6]) it was “Δ (Δ: total point of 10 panelists is 16 to 24)”; in data set [2] (setting [7]) it was “X (X: total point of 10 panelists is 15 or less)”. Besides, the Odor entry is reported as “◯ (◯: total point of 10 panelists is 25 or more)” in data set [1] (storage period 0, 10 panelists); “Δ (Δ: total point of 10 panelists is 16 to 24)” in data set [1] (setting [6]); “X (X: total point of 10 panelists is 15 or less)” in data set [1] (setting [7]); “◯ (◯: total point of 10 panelists is 25 or more)” in data set [2] (storage period 0, 10 panelists); “Δ (Δ: total point of 10 panelists is 16 to 24)” in data set [2] (setting [6]); “X (X: total point of 10 panelists is 15 or less)” in data set [2] (setting [7]). In addition, the “Judgement of moisturizing effect (water amount)” value in data set [3] is on record as “X (X: less than 10 mg)”. Further, the activity at 100 µM in data set [4] is 100 to 200%. In addition, the “collagen production promoting effect over time (in words)” value in data set [5] is “lowers over time”. The figures for the “Collagen production amount in comparison with the control group (% value when the control group is 100%)” value in data set [5] (culturing period 2 days), in data set [5] (culturing period 4 days) and in data set [5] (culturing period 7 days) were 252 ± 12%, 182 ± 9% and 139 ± 14%, respectively.
Regarding `O=C1O[C@H]([C@@H](O)CO)C(O)=C1OCC(O)CO` (some centres unmarked) [Example 3, 2-O-glyceryl ascorbic acid], in the data set with B16 melanoma 4A5 cell, the “Whitening effect” value is “+ (20 to 40%:+)”. For the same molecule, the Residual rate entry in data set [1] (storage period 0), in data set [1] (storage period 2 weeks), in data set [1] (storage period 4 weeks), in data set [2] (storage period 0), in data set [2] (storage period 2 weeks) and in data set [2] (storage period 4 weeks) was “⊚ (⊚: 90% or more)” each time. Besides, the Coloration result in data set [1] (storage period 0, 10 panelists) was “◯ (◯: total point of 10 panelists is 25 or more)”; in data set [1] (setting [6]), “◯ (◯: total point of 10 panelists is 25 or more)”; in data set [1] (setting [7]) it was “◯ (◯: total point of 10 panelists is 25 or more)”; in data set [2] (storage period 0, 10 panelists), “◯ (◯: total point of 10 panelists is 25 or more)”; in data set [2] (setting [6]), “◯ (◯: total point of 10 panelists is 25 or more)”; in data set [2] (setting [7]), “◯ (◯: total point of 10 panelists is 25 or more)”. For the same molecule, the Odor result was “◯ (◯: total point of 10 panelists is 25 or more)” in data set [1] (storage period 0, 10 panelists); “◯ (◯: total point of 10 panelists is 25 or more)” in data set [1] (setting [6]); “◯ (◯: total point of 10 panelists is 25 or more)” in data set [1] (setting [7]); “◯ (◯: total point of 10 panelists is 25 or more)” in data set [2] (storage period 0, 10 panelists); “◯ (◯: total point of 10 panelists is 25 or more)” in data set [2] (setting [6]); “◯ (◯: total point of 10 panelists is 25 or more)” in data set [2] (setting [7]). The “moisturizing effect (in words)” value in data set [3] is given as “excellent moisturizing effect by far than ascorbic acid”. In addition, the activity at 100 µM in data set [4] was 100 to 200%. In addition, the figures for the “Collagen production amount in comparison with the control group (% value when the control group is 100%)” value in data set [5] (culturing period 2 days), in data set [5] (culturing period 4 days) and in data set [5] (culturing period 7 days) were 226 ± 10%, 193 ± 6% and 258 ± 22%, respectively.
Take `O=C1O[C@H]([C@@H](O)CO)C(O)=C1O[C@H]1O[C@H](CO)[C@@H](O)[C@H](O)[C@H]1O` [ascorbic acid glucoside, reference compound]: the “Whitening effect” value in the data set on B16 melanoma 4A5 cell is “+ (20 to 40%:+)”. Also, the “Judgement of moisturizing effect (water amount)” value in data set [3] is “⊚ (⊚: 40 mg or more)”. The “Collagen production promoting effect (collagen production amount, % of control group)” value in data set [4] (N=4) is given as “+ (100 to 200%:+)”. In addition, in data set [5], the “collagen production promoting effect over time (in words)” value was “lowers over time”. Further, the “Collagen production amount in comparison with the control group (% value when the control group is 100%)” value is 193 ± 4% in data set [5] (culturing period 2 days), 239 ± 2% in data set [5] (culturing period 4 days) and 179 ± 14% in data set [5] (culturing period 7 days).
On to `O=C1O[C@H]([C@@H](O)CO)C(OCC(O)CO)=C1OCC(O)CO` (some centres unmarked) [Example 4, 2,3-di-O-glyceryl ascorbic acid], for which the “Whitening effect” value with B16 melanoma 4A5 cell is reported as “+ (20 to 40%:+)”. Also, the Residual rate entry in data set [1] (storage period 0), in data set [1] (storage period 2 weeks), in data set [1] (storage period 4 weeks), in data set [2] (storage period 0), in data set [2] (storage period 2 weeks) and in data set [2] (storage period 4 weeks) was “⊚ (⊚: 90% or more)” in each case. Also, the Coloration entry in data set [1] (storage period 0, 10 panelists) is “◯ (◯: total point of 10 panelists is 25 or more)”; in data set [1] (setting [6]), “◯ (◯: total point of 10 panelists is 25 or more)”; in data set [1] (setting [7]), “◯ (◯: total point of 10 panelists is 25 or more)”; in data set [2] (storage period 0, 10 panelists) it was “◯ (◯: total point of 10 panelists is 25 or more)”; in data set [2] (setting [6]), “◯ (◯: total point of 10 panelists is 25 or more)”; in data set [2] (setting [7]) it was “◯ (◯: total point of 10 panelists is 25 or more)”. Further, the Odor result is “◯ (◯: total point of 10 panelists is 25 or more)” in data set [1] (storage period 0, 10 panelists); “◯ (◯: total point of 10 panelists is 25 or more)” in data set [1] (setting [6]); “◯ (◯: total point of 10 panelists is 25 or more)” in data set [1] (setting [7]); “◯ (◯: total point of 10 panelists is 25 or more)” in data set [2] (storage period 0, 10 panelists); “◯ (◯: total point of 10 panelists is 25 or more)” in data set [2] (setting [6]); “◯ (◯: total point of 10 panelists is 25 or more)” in data set [2] (setting [7]). The “moisturizing effect (in words)” value in data set [3] is “excellent moisturizing effect by far than ascorbic acid”. In data set [4], the activity at 100 µM fell in the range of 100 to 200%. Moreover, the “Collagen production amount in comparison with the control group (% value when the control group is 100%)” value turned out to be 161 ± 8% in data set [5] (culturing period 2 days), 171 ± 7% in data set [5] (culturing period 4 days) and 209 ± 27% in data set [5] (culturing period 7 days).
